Assay [1] concerns Acinetobacter pittii. As to the kind of experiment: Ratio of MIC for Acinetobacter genomosp. 3 isolate 103 to MIC for Acinetobacter genomosp. 3 isolate 103 in presence of efflux pump inhibitor PAN. Type of assay: functional.
Assay [2] concerns Acinetobacter pittii. As to the kind of experiment: Ratio of MIC for Acinetobacter genomosp. 3 isolate 103 to MIC for Acinetobacter genomosp. 3 isolate 103 in presence of efflux pump inhibitor CCCP. Type of assay: functional.

Turning to `C[C@@H](O)[C@H]1C(=O)N2C(C(=O)O)=C(S[C@@H]3CN[C@H](C(=O)N(C)C)C3)[C@H](C)[C@H]12` [MEROPENEM], the values for the Ratio in the assay on Acinetobacter pittii [1] and in the assay with Acinetobacter pittii [2] were 4 and 3, respectively.

(Values after ChEMBL document CHEMBL1649124, “Genetic variability among ampC genes from acinetobacter genomic species 3” (Antimicrob Agents Chemother, 2009).)
